Laboratory results: patent publication US20090053192A1, “TISSUE-NONSPECIFIC ALKALINE PHOSPHATASE (TNAP) ACTIVATORS AND USES THEREOF” (BURNHAM INSTITUTE FOR MEDICAL RESEARCH, priority 2007, published 2009)

Legend:
TNAP [1] = molecular target: T1, TNAP (Homo sapiens, UniProt P05186); test: luminescent CDP-star-based TNAP assay, MLSMR screen (PubChem AID 518)
T1 sequence (P05186 18-502 limits assumed): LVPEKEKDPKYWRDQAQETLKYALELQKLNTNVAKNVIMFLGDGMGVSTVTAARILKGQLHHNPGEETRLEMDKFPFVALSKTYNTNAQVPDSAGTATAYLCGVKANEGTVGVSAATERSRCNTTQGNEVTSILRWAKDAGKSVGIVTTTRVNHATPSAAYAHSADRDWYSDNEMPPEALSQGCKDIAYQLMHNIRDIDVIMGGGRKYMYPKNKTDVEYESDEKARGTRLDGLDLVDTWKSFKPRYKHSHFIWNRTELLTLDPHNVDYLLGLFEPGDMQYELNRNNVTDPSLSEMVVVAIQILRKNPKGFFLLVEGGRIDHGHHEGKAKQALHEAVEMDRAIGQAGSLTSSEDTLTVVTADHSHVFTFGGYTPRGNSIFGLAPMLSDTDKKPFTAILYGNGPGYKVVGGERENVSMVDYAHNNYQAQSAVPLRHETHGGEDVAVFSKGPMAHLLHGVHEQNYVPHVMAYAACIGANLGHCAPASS
From the text: To address this issue, a TNAP assay was developed. This assay is based on the dephosphorylation of a CDP-star® alkaline phosphatase substrate (New England Biolabs, Inc.) designed to detect alkaline phosphatase in blotting techniques (FIG. 6). As with many chemiluminescent reactions, the dioxetane-based reaction represents a sequence of several steps. Dioxetane-phosphate is dephosphorylated by an alkaline phosphatase leading to the generation of an unstable product that decomposes to a stable product with concomitant light production. Once the steady-state of the overall reaction is achieved (in the current reaction it happens within the first 5 min), the luminescence signal output is stable over several hours. As an added bonus, the light intensity of the chemiluminescent reaction is directly proportional to the rate of the TNAP reaction; therefore, the activity of the enzyme can be reliably measured in real-time.
In this table, the column corresponding to TNAP (luminescence) was calculated as (100−X)/100, where X is % inhibition. In some aspects, TNAP activation fact refers to the fold increase in TNAP activity. There are two tiers of data confirmation embedded in the data.

TNAP [2] = molecular target: T1, TNAP; test: optimized TNAP activation assay, CAPS buffer pH 9.8, CDP-Star luminescence; type: biochemical
Experimental: The activity of TNAP (1/800) was measured in 50 mM CAPS, pH 9.8, containing 1 mM MgCl2, 20 uM ZnCl2 and varied concentrations of CDP-Star. The luminescence signal was obtained using 384-well white small-volume plates (Greiner 784075) on a PE Envision plate reader. Experimental data were analyzed using the Michaelis-Menten equation.
The activity of TNAP (1/800) was measured in 50 mM CAPS, pH 9.8, containing 1 mM MgCl2, 20 μM ZnCl2 and 25 μM CDP-Star® in the presence of serially diluted DEA, pH adjusted to 9.8. The luminescence signal, obtained using 384-well white small-volume plate (Greiner 784075) on a PE Envision plate reader, was fitted to 4-parameter sigmoidal equation. The best-fit curve is shown as a solid line.
The luminescent assay was further optimized to ensure its maximum sensitivity to compounds activating TNAP. […] This assay can provide a more accurate measure of phosphatase activity, as opposed to transphosphorylation, activity that might be more relevant to in vivo conditions. The previously utilized assay was performed in the presence DEA at a concentration of CDP-star equal to its Km value. However, the appropriate concentration of the components was needed for the new buffer. TNAP activity vs. its concentration was tested as a function of TNAP concentrations (FIG. 7).
It was observed that TNAP activity was linearly dependent over an extended range of TNAP concentrations. A 1/800 concentration of TNAP was used for further work; this concentration is 1315-fold above the limit of detection of the assay. To ensure that substrate concentration is correctly adjusted in the new assay, TNAP activity was tested in the presence of varied CDP-star® concentrations (FIG. 8). It was decided to fix the concentration of CDP-star® at 25 uM (˜Km) to provide enough sensitivity even for compounds competitive with the CDP-star® substrate. In the next experiment, the activation of TNAP was tested with DEA (FIG. 9).
600 mM DEA (pH 9.8) was chosen as the positive control for TNAP activation screening. […]

[3] = TNAP 1/800, 50 mM CAPS pH 9.8, Michaelis-Menten
[4] = calculated as (100-X)/100, where X is % inhibition, luminescence

Row | SMILES | TNAP Activation Factor (TNAP [1]; [4]) | other results
1 | OCCN(CCO)c1nc(N2CCCCC2)c2nc(N(CCO)CCO)nc(N3CCCCC3)c2n1 [2,2′,2″,2′″-[4,8-di(piperidin-1-yl)pyrimido[5,4-d]pyrimidine-2,6-diyl]bis(azanetriyl)tetraethanol] | – | TNAP Activation Factor (TNAP [1]; Table 3): 1.6
2 | c1nc(-c2[nH]nc3c2CCC3)n2nc(C3CCCCC3)sc12 [6-cyclohexyl-3-(2,4,5,6-tetrahydrocyclopenta[c]pyrazol-3-yl)-[1,2,4]triazole[3,4-b][1,3,4]thiadiazole] | – | TNAP Activation Factor (TNAP [1]; Table 3): 1.5
3 | COC1(c2ccc(Cl)c(OP(=O)([O-])[O-])c2)OOC12C1CC3CC2CC(Cl)(C3)C1.[Na+].[Na+] (centres unmarked) [CDP-star, Disodium 2-chloro-5-(4-methoxyspiro{1,2-dioxetane-3,2′-(5′-chloro)-ricyclo[3.3.1.13,7]decan}-4-yl)-1-phenyl phosphate] | – | Km (TNAP [2]; [3]): 21.9 ± 3.4 µM; Vmax (TNAP [2]; [3]): 10300±408 RLU
4 | N=c1c2c(-c3ccccc3)c(-c3ccccc3)n(Cc3ccccc3)c2ncn1CCCn1ccnc1 [Compound 3] | 4.3 | –
5 | CCN(CC)c1ccc2cc(-c3nc4ccccc4n3C)c(=O)oc2c1 [Compound 4] | 2.8 | –
6 | Cc1cc(C2N=C(N)Nc3nc4ccccc4n32)c(C)n1-c1ccccc1Cl (centres unmarked) [Compound 6] | 2.2 | –
7 | CC(C)n1c(NCc2nc3ccccc3n2C)nc2ccccc21 [Compound 7] | 2.0 | –
8 | O=C(CN1C(=O)CCC1=O)Nc1nc(-c2ccccn2)cs1 [Compound 9] | 2.0 | –
9 | OCCN1CCOCCN(CCO)CCN(CCO)CC1 [Compound 10] | 1.9 | –
10 | Nc1[nH]nc2nc(NCc3ccccc3)c3c(c12)CCN(Cc1ccccc1)C3 [Compound 11] | 1.9 | –
11 | COc1ccc(CCNC(=O)c2cc(-c3ccccc3O)[nH]n2)cc1OC [Compound 12] | 1.9 | –
12 | Cc1nn2c(O)cc(C(C)(C)C)nc2c1-c1ccccc1 [Compound 13] | 1.8 | –
13 | Oc1c(C(c2ccccn2)N2CCOCC2)ccc2cccnc12 (centres unmarked) [Compound 15] | 1.7 | –
14 | O=C(CN(Cc1ccco1)C(=O)CNS(=O)(=O)c1ccc(F)cc1)NCc1ccc(F)cc1 [Compound 16] | 1.7 | –
15 | Clc1ccc(COC(Cn2ccnc2)c2ccc(Cl)cc2Cl)c(Cl)c1 (centres unmarked) [Compound 17] | 1.7 | –
16 | OCCN(CCO)c1cc2c(N3CCCCC3)nc(N(CCO)CCO)nc2c(N2CCCCC2)n1 [Compound 18] | 1.6 | –
17 | O=C(Nc1cccc(OC(F)(F)F)c1)c1ccc(Br)o1 [Compound 19] | 1.6 | –
18 | NC1=NC2(CCC(c3ccccc3)CC2)n2c(nc3ccccc32)N1 (centres unmarked) [Compound 20] | 1.6 | –
19 | O=S(=O)(CCc1ncc(-c2ccccc2)o1)c1ccc2ccccc2c1 [Compound 21] | 1.6 | –

Row | SMILES | TNAP Activation Factor (TNAP [1]; [4]) | other results
20 | CCc1ccc(-c2nc(CN3CCC(C(=O)NCCN(CC)c4ccccc4)CC3)c(C)o2)cc1 [Compound 22] | 1.6 | –
21 | COc1cccc(N(C(=O)c2cc[nH]n2)C2(C(=O)Nc3c(C)cccc3C)CCCCC2)c1 [Compound 23] | 1.6 | –
22 | OCCCN1c2ccccc2Nc2nnc(-c3ccccc3)cc21 [Compound 25] | 1.5 | –
23 | C1CCC(c2nn3c(-c4[nH]nc5c4CCC5)nnc3s2)CC1 [Compound 26] | 1.5 | –
24 | NC1=NC(c2cn(-c3ccccc3)nc2-c2cccs2)n2c(nc3ccccc32)N1 (centres unmarked) [Compound 28] | 1.5 | –
25 | OCCNCCO [DEA, diethanolamine] | – | Maximal activation, higher activity than in the absence of DEA (TNAP [2]; TNAP 1/800, 25 μM CDP-Star, pH 9.8): 9.4 fold
26 | O=C(CN1C(=O)CCC1=O)Nc1nc(-c2ccccn2)cs1 [drawing 29, 2-(2,5-dioxopyrrolidin-1-yl)-N-[4-(pyridine-2-yl)thiazol-2-yl]acetamide] | – | TNAP Activation Factor (TNAP [1]; Table 1): 2.0
27 | CC(C)n1c(NCc2nc3ccccc3n2C)nc2ccccc21 [drawing 45, 1-isopropyl-N-[(1-methyl-1H-benzo[d]imidazol-2-yl)methyl]-1H-benzo[d]imidazol-2-amine] | – | TNAP Activation Factor (TNAP [1]; Table 2): 2.0
28 | Nc1[nH]nc2nc(NCc3ccccc3)c3c(c12)CCN(Cc1ccccc1)C3 [drawing 47, N^5,7-dibenzyl-6,7,8,9-tetrahydro-2H-pyrazolo[3,4-c][2,7]napythyridine-1,5-diamine] | – | TNAP Activation Factor (TNAP [1]; Table 2): 1.9
29 | N=c1c2c(-c3ccccc3)c(-c3ccccc3)n(Cc3ccccc3)c2ncn1CCCn1ccnc1 [drawing 64, 3-[3-(1H-imidazol-1-yl)propyl]-7-benzyl-5,6-diphenyl-3H-pyrrolo[2,3-d]pyrimidin-4(7H)-imine] | – | TNAP Activation Factor (TNAP [1]; Table 3): 4.3
30 | Cc1cc(C2N=C(N)Nc3nc4ccccc4n32)c(C)n1-c1ccccc1Cl (centres unmarked) [drawing 66] | – | TNAP Activation Factor (TNAP [1]; Table 3): 2.2
31 | Cc1nn2c(O)cc(C(C)(C)C)nc2c1-c1ccccc1 [drawing 67, 5-tert-butyl-2-methyl-3-phenylpyrazolo[1,5-a]pyrimidin-7-ol] | – | TNAP Activation Factor (TNAP [1]; Table 3): 1.8
32 | Oc1c(C(c2ccccn2)N2CCOCC2)ccc2cccnc12 (centres unmarked) [drawing 68, 7-[morpholino(pyridin-2-yl)methyl]quinolin-8-ol] | – | TNAP Activation Factor (TNAP [1]; Table 3): 1.7
33 | OCCCN1c2ccccc2Nc2nnc(-c3ccccc3)cc21 [drawing 70, 3-(3-phenylpyridazino[3,4-b]quinoxalin-5(10H)-yl)propan-1-ol] | – | TNAP Activation Factor (TNAP [1]; Table 3): 1.5
34 | NC1=NC(c2cn(-c3ccccc3)nc2-c2cccs2)n2c(nc3ccccc32)N1 (centres unmarked) [drawing 72] | – | TNAP Activation Factor (TNAP [1]; Table 3): 1.5
35 | OCCN1CCOCCN(CCO)CCN(CCO)CC1 [drawing 74, 2,2′,2″-(1-oxa-4,7,10-triazacyclododecane-4,7,10-triyl)ethanol] | – | TNAP Activation Factor (TNAP [1]; Table 3): 1.9
36 | COc1ccc(CCNC(=O)c2cc(-c3ccccc3O)[nH]n2)cc1OC [drawing 75, N-(3,4-dimethoxyphenethyl)-5-(2-hydroxyphenyl)-1H-pyrazole-3-carboxamide] | – | TNAP Activation Factor (TNAP [1]; Table 3): 1.9
37 | O=C(CN(Cc1ccco1)C(=O)CNS(=O)(=O)c1ccc(F)cc1)NCc1ccc(F)cc1 [drawing 76, N-[2-(4-fluorobenzylamino)-2-oxoethyl]-2-(4-fluorphenylsulfonamido)-N-(furan-2-ylmethyl)acetamide] | – | TNAP Activation Factor (TNAP [1]; Table 3): 1.7
